The source made the active and inactive calls. No cut-off for these calls is given here.
How the values were obtained:
MV4-11 = experiment: Antiproliferative activity against human MV4-11 cells assessed as inhibition of cell proliferation treated for 72 hrs by resazurin dye-based fluorescence assay; type: functional; conditions: MV4-11, 72 h
BXPC-3 [1] = experiment: Antiproliferative activity against human BXPC-3 cells assessed as inhibition of cell proliferation treated for 72 hrs by resazurin dye-based fluorescence assay; type: functional; conditions: BXPC-3, 72 h
BXPC-3 [2] = experiment: Induction of apoptosis in human BXPC-3 cells assessed as viable cells at 50 nM incubated for 24 hrs by […] (reference value: 93.51 %); type: functional; conditions: read-out: Activity
[3] = Half life in Beagle dog at 1 mg/kg, iv measured for 0.083 to 24 hrs by LC-MS/MS analysis; type: ADME, organism-based, Canis lupus familiaris; conditions: in vivo, time 0.083-24 hrs
MM1.S = experiment: Antiproliferative activity against human MM1.S cells assessed as inhibition of cell proliferation treated for 72 hrs by resazurin dye-based fluorescence assay; type: functional
BXPC-3 [4] = experiment: Induction of apoptosis in human BXPC-3 cells assessed as early cells at 25 nM incubated for 24 hrs by […] (reference value: 1.68 %); type: functional
CWR22R [5] = experiment: In vivo antitumor activity against human 22Rv1 cells xenografted in castrated male nude Balb/c mouse assessed as tumor growth inhibition at 50 mg/kg, ip administered twice a week measured after 28 days relative to control; type: functional; conditions: 22Rv1, 672 h, time 28 day, read-out: TGI
BXPC-3 [6] = experiment: Cell cycle arrest in human BXPC-3 cells assessed as cell accumulation at S phase at 25 to 100 nM incubated for 24 hrs by flow cytometry; type: functional, cell-based; conditions: dose 25-100 nM
[7] = Cmax in Beagle dog at 1 mg/kg, iv measured for 0.083 to 24 hrs by LC-MS/MS analysis; type: ADME, organism-based, Canis lupus familiaris; parameters: time upper 24 hrs, time lower 0.083 hrs, dose 1 mg/kg, route iv; conditions: in vivo
BXPC-3 [8] = experiment: Upregulation of P21 WAF1/Cip1 expression in human BXPC-3 cells at 25 to 100 nM incubated for 24 hrs by Western blot analysis; type: functional, cell-based; conditions: dose 25-100 nM
Huh-7 = experiment: Antiproliferative activity against human Huh-7 cells assessed as inhibition of cell proliferation treated for 72 hrs by resazurin dye-based fluorescence assay; type: functional; conditions: Huh-7, 72 h
CWR22R [9] = experiment: In vivo antitumor activity against human 22Rv1 cells xenografted in castrated male nude Balb/c mouse assessed as relative increment ratio at 50 mg/kg, ip administered twice a week measured after 28 days relative to control; type: functional; conditions: time 28 day
CWR22R [10] = experiment: Antiproliferative activity against human 22Rv1 cells assessed as inhibition of cell proliferation treated for 72 hrs by resazurin dye-based fluorescence assay; type: functional; conditions: 22Rv1, 72 h
[11] = Toxicity in castrated male nude Balb/c mouse xenografted with human 22Rv1 cells assessed as animal weight loss at 50 mg/kg, ip administered twice a week measured after 28 days; type: organism-based, CWR22R; conditions: in vivo, 672 h, time 28 day
BXPC-3 [12] = experiment: Induction of apoptosis in human BXPC-3 cells assessed as necrotic cells at 25 nM incubated for 24 hrs by […] (reference value: 3.57 %); type: functional
BXPC-3 [13] = experiment: Induction of apoptosis in human BXPC-3 cells assessed as necrotic cells at 100 nM incubated for 24 hrs by […] (reference value: 3.57 %); type: functional
BXPC-3 [14] = experiment: Induction of apoptosis in human BXPC-3 cells assessed as early cells at 100 nM incubated for 24 hrs by […] (reference value: 1.68 %); type: functional
[15] = AUC (0 to infinity) in Beagle dog at 1 mg/kg, iv measured for 0.083 to 24 hrs by LC-MS/MS analysis; type: ADME, organism-based, Canis lupus familiaris; parameters: time upper 24 hrs, time lower 0.083 hrs, dose 1 mg/kg, route iv; conditions: in vivo
[16] = Toxicity in castrated male nude Balb/c mouse xenografted with human 22Rv1 cells assessed as tolerance at 50 mg/kg, ip administered twice a week measured after 28 days; type: organism-based, CWR22R; conditions: in vivo, 672 h, time 28 day
BXPC-3 [17] = experiment: In vivo antitumor activity against human BXPC-3 cells xenografted in nude Balb/c mouse assessed as tumor growth inhibition at 50 to 80 mg/kg, ip measured after 28 days; type: functional, organism-based; conditions: dose 50-80 mg/kg, time 28.0 day
[18] = (§1) Prodrug conversion in human plasma assessed as mixture of benzyl 2-(((((2R,3R,5R)-5-(4-amino-2-oxopyrimidin-1(2H)-yl)-4,4-difluoro-3-hydroxytetrahydrofuran-2-yl)methoxy)(hydroxy)phosphoryl)oxy)acetate and benzyl 2-(((((2R,3R,5R)-5-(4-amino-2-oxopyrimidin-1(2H)-yl)-4,4-difluoro-2-(hydroxymethyl)tetrahydrofuran-3-yl)oxy)(hydroxy)phosphoryl)oxy)acetate metabolites formation incubated for 72 hrs by 1H-NMR analysis; type: ADME, cell-free
BXPC-3 [19] = experiment: Induction of apoptosis in human BXPC-3 cells assessed as viable cells at 100 nM incubated for 24 hrs by […] (reference value: 93.51 %); type: functional; conditions: read-out: Activity
[20] = as §1, with “31P-NMR” for “1H-NMR”; type: ADME, cell-free
BXPC-3 [21] = experiment: Induction of apoptosis in human BXPC-3 cells assessed as early cells at 50 nM incubated for 24 hrs by […] (reference value: 1.68 %); type: functional
BXPC-3 [22] = experiment: Induction of apoptosis in human BXPC-3 cells assessed as late cells at 25 nM incubated for 24 hrs by […] (reference value: 1.24 %); type: functional
JeKo-1 = experiment: Antiproliferative activity against human JeKo-1 cells assessed as inhibition of cell proliferation treated for 72 hrs by resazurin dye-based fluorescence assay; type: functional; conditions: JeKo-1, 72 h
[23] = Toxicity in castrated male nude Balb/c mouse xenografted with human 22Rv1 cells assessed as toxic signs at 50 mg/kg, ip administered twice a week measured after 28 days; type: organism-based, CWR22R; conditions: in vivo, 672 h, time 28 day
BXPC-3 [24] = experiment: Induction of apoptosis in human BXPC-3 cells assessed as necrotic cells at 50 nM incubated for 24 hrs by […] (reference value: 3.57 %); type: functional
[25] = Metabolic stability in beagle dog plasma assessed as half life incubated for 6 hrs by HPLC analysis; type: ADME, cell-free, Canis lupus familiaris
BXPC-3 [26] = experiment: Induction of apoptosis in human BXPC-3 cells assessed as viable cells at 25 nM incubated for 24 hrs by […] (reference value: 93.51 %); type: functional; conditions: read-out: Activity
[27] = Toxicity in nude Balb/c mouse xenografted with human BXPC-3 cells assessed as apparent signs of toxicity at 50 to 80 mg/kg, ip measured after 28 days; type: organism-based; conditions: in vivo, 672 h, dose 50-80 mg/kg, time 28 day
[28] = Clearance in Beagle dog at 1 mg/kg, iv measured for 0.083 to 24 hrs by LC-MS/MS analysis; type: ADME, organism-based, Canis lupus familiaris; conditions: in vivo, time 0.083-24 hrs
[29] = Metabolic stability in rat plasma assessed as half life incubated for 6 hrs by HPLC analysis; type: ADME, cell-free
[30] = as §1, with “LC-MS” for “1H-NMR”; type: ADME, cell-free
BXPC-3 [31] = experiment: Induction of apoptosis in human BXPC-3 cells assessed as late cells at 100 nM incubated for 24 hrs by […] (reference value: 1.24 %); type: functional
MIA PaCa-2 = experiment: Antiproliferative activity against human MIA PaCa-2 cells assessed as inhibition of cell proliferation treated for 72 hrs by resazurin dye-based fluorescence assay; type: functional; conditions: MIA PaCa-2, 72 h
[32] = Prodrug conversion in human plasma assessed as metabolites formation incubated for 24 hrs by 31P-NMR analysis; type: ADME, cell-free
BXPC-3 [33] = experiment: Upregulation of cleaved caspase-3 expression in human BXPC-3 cells at 25 to 100 nM incubated for 24 hrs by Western blot analysis; type: functional, cell-based; conditions: dose 25-100 nM
CWR22R [34] = experiment: Antiproliferation activity against human 22Rv1 cells xenografted in castrated male nude Balb/c mouse assessed as downregulation of Ki-67 level at 50 mg/kg, ip administered twice a week measured after 28 days by immunohistochemical assay relative to control; type: functional, organism-based; conditions: time 28.0 day
BXPC-3 [35] = experiment: Induction of apoptosis in human BXPC-3 cells assessed as late cells at 50 nM incubated for 24 hrs by […] (reference value: 1.24 %); type: functional
[36] = Metabolic stability in human plasma assessed as half life incubated for 6 hrs by HPLC analysis; type: ADME, cell-free

IC50 (MV4-11): 0.0054 µM | IC50 (BXPC-3 [1]): 0.0165 µM | half-life [3]: 7.2 min | IC50 (MM1.S): 0.0036 µM | Cmax [7]: 3.6 µg/mL | IC50 (Huh-7): 0.0162 µM | AUC(0-inf) [15]: 0.52 µg·h/mL | Drug metabolism [18]: Metabolite_Detected | Drug metabolism [20]: Metabolite_Detected | half-life [25]: 40 min | clearance [28]: 1.95 L/h/kg | half-life [29]: 40 min | Drug metabolism [30]: Metabolite_Detected | IC50 (MIA PaCa-2): 0.0125 µM | Drug metabolism [32]: Metabolite_Detected | half-life [36]: 40 min
SMILES: Nc1ccn([C@@H]2O[C@@H]3COP(=O)(OCC(=O)OCc4ccccc4)O[C@H]3C2(F)F)c(=O)n1 (stereo partly specified)
viability at 0.05 µM (BXPC-3 [2]): 90.1% | Activity (BXPC-3 [4]): 2.87% | inhibition in vivo at 50 mg/kg (CWR22R [5]): 68.5% | Activity (BXPC-3 [6]): Active | Activity (BXPC-3 [8]): Active | T/C (CWR22R [9]): 35.2% | IC50 (CWR22R [10]): 0.0106 µM | Activity [11]: Non-Toxic | Activity (BXPC-3 [12]): 3.17% | Activity (BXPC-3 [13]): 4.42% | Activity (BXPC-3 [14]): 3.5% | Activity [16]: Non-Toxic | Activity (BXPC-3 [17]): Active | viability at 0.1 µM (BXPC-3 [19]): 88.6% | Activity (BXPC-3 [21]): 3.19% | Activity (BXPC-3 [22]): 2.31% | IC50 (JeKo-1): 0.0192 µM | Activity [23]: Non-Toxic | Activity (BXPC-3 [24]): 4.02% | viability at 0.025 µM (BXPC-3 [26]): 91.7% | Activity [27]: Non-Toxic | Activity (BXPC-3 [31]): 3.48% | Activity (BXPC-3 [33]): inactive | Activity (CWR22R [34]): Active | Activity (BXPC-3 [35]): 2.73%

Source: ChEMBL document CHEMBL5247648, “Design, Synthesis, and Anti-Cancer Evaluation of Novel Cyclic Phosphate Prodrug of Gemcitabine” (J Med Chem, 2023)
